molecular target: T1, human ACC2 (Homo sapiens, UniProt O00763); assay: ACC2 assay, spectrophotometric 384 well assay (NADH-linked, coupled lactate dehydrogenase/pyruvate kinase); assay type: biochemical; conditions: ACC2 assay; human ACC2 construct lacking 128 N-terminal amino acids; 25° C., 340 nm, 15 minutes; read-out: IC50
T1 construct: made in house; host or cells: insect cells (baculoviral expression system)
Protocol: Spectrophotometric 384 Well Assay
Malonyl CoA formation by acetyl CoA carboxylases is stoichometrically linked to the consumption of ATP. ACC2 activity is measured in a NADH-linked kinetic method measuring ADP generated during the ACC reaction using a coupled lactate dehydrogenase/pyruvate kinase reaction.
For biological testing, a human ACC2 construct which lacks the 128 amino acids at the N-terminus for increased solubility (nt 385-6966 in Genbank entry AJ575592) is cloned. The protein is then expressed in insect cells using a baculoviral expression system. Protein purification is performed by anion exchange.
All compounds are dissolved in dimethyl sulfoxide (DMSO) to a concentration of 10 mM.
Assay reactions are then carried out in 384-well plates, with hACC2 in an appropriate dilution and at final assay concentrations (f.c.) of 100 mM Tris (pH 7.5), 10 mM trisodium citrate, 25 mM KHCO3, 10 mM MgCl2, 0.5 mg/ml BSA, 3.75 mM reduced L-glutathione, 15 U/ml lactate dehydrogenase, 0.5 mM phosphoenolpyruvate, 15 U/ml pyruvate kinase, compounds at different concentrations at final DMSO concentrations of 1%.
The enzymatic reaction is then started by addition of a mixture of NADH, acetyl Coenzyme A (both […].) and ATP (500 uM f.c.). The decrease of the optical density (slope S) is then determined at 25° C. at a wavelength of 340 nm over 15 minutes in a spectrophotometric reader.
Each assay microtiter plate contains wells with vehicle instead of compound as controls for the non-inhibited enzyme (100% CTL; ‘HIGH’) and wells without acetyl-CoA as controls for non-specific NADH degradation (0% CTL; ‘LOW’).
The slope S is used for calculation of % CTL=(S(compound)−S(‘LOW’))/(S(‘HIGH’)−S(‘LOW’))100. Compounds will give values between 100% CTL (no inhibition) and 0% CTL (complete inhibition).
For IC50 value determination, the sample slope in the presence of the test compound after subtraction of the low controls (S(compound)−S(‘LOW’)) are used.
An IC50 value is derived from the compound slopes at different dosages after subtraction of the low controls (S(compound)−S(‘LOW’)) by non-linear regression curve fitting (equation y=(A+((B−A)/(1+((C/x)^D))))).

T1 sequence (O00763 129-2458 limits assumed): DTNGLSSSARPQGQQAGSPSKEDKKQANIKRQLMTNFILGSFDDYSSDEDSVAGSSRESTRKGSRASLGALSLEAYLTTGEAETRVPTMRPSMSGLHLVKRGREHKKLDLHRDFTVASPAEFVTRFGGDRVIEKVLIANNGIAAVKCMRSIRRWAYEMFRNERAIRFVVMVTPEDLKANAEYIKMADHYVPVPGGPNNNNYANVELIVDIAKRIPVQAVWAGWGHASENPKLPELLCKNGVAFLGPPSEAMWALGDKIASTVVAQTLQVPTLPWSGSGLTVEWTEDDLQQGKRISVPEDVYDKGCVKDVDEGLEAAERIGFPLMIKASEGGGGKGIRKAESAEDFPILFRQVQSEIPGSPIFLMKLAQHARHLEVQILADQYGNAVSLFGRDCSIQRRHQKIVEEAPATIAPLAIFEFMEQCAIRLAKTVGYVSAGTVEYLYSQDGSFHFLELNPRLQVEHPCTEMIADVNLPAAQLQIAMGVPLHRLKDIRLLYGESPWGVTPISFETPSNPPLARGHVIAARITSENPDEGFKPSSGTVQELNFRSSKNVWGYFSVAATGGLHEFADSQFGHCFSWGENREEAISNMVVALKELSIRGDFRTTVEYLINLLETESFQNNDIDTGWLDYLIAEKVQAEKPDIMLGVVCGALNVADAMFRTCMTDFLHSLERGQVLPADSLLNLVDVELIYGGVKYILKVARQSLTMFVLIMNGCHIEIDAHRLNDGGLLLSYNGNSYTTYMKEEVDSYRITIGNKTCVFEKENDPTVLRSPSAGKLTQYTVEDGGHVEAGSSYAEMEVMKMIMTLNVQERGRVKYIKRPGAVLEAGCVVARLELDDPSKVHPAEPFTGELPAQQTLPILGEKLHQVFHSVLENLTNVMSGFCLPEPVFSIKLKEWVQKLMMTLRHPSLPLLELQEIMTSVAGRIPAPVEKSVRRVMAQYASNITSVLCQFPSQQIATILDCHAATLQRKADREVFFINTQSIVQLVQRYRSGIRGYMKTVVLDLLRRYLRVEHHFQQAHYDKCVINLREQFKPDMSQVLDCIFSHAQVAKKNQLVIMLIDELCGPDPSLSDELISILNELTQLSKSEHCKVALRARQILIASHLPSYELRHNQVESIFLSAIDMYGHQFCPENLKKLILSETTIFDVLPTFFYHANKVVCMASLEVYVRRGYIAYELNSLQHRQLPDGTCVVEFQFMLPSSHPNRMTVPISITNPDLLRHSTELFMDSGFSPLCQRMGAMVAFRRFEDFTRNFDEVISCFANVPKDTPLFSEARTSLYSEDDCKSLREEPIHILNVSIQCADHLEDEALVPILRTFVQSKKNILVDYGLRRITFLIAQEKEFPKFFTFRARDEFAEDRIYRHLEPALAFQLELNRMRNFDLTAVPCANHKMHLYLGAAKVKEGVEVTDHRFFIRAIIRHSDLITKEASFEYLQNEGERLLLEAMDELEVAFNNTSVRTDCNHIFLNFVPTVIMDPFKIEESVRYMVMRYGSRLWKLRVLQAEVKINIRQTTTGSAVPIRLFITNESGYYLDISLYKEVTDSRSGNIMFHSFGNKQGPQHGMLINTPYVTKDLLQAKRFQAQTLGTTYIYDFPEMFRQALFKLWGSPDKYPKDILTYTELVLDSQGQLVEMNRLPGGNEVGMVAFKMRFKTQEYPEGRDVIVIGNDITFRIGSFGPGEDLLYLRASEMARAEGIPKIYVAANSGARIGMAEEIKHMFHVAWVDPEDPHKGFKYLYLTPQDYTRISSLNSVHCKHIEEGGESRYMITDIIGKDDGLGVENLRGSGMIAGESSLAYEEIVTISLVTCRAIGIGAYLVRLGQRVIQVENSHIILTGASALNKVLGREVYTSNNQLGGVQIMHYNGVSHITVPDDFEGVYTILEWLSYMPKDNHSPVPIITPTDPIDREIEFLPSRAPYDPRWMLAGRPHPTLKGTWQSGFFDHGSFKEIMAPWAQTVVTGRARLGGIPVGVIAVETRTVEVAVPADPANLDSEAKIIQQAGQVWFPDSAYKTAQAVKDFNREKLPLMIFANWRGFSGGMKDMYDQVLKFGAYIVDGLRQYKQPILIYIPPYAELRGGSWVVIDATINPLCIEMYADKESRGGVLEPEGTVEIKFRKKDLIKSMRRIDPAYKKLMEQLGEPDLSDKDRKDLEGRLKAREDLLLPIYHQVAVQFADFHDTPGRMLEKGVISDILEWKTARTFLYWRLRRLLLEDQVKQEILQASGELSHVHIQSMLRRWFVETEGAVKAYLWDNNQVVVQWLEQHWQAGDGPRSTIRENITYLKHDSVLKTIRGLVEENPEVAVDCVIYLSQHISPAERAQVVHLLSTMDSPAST

IC50 [µM]	SMILES
2.06	CCOc1ccc(OC2CN(c3ccc([C@H](C)NC(=O)c4cncn4C)cc3)C2)cc1 [Example 1.34]
0.4	CCOc1ccc(OC2CN(c3ccc([C@H](C)NC(=O)c4ocnc4C)cc3)C2)cc1 [Example 1.35]
1.61	CCOc1ccc(OC2CN(c3ccc([C@H](C)NC(=O)c4ccon4)cc3)C2)cc1 [Example 1.36]
0.17	CCOc1ccc(OC2CN(c3ccc([C@H](C)NC(=O)c4cnco4)cc3)C2)cc1 [Example 1.37]
0.78	CCOc1ccc(OC2CN(c3ccc([C@H](C)NC(=O)c4scnc4C)cc3)C2)cc1 [Example 1.38]
2.25	CCOc1ccc(OC2CN(c3ccc([C@H](C)NC(=O)c4oc(C)nc4C)cc3)C2)cc1 [Example 1.39]
6.43	CCOc1ccc(OC2CN(c3ccc([C@H](C)NC(=O)C(C)(C)OC)cc3)C2)cc1 [Example 1.40]
1.07	CCOc1ccc(OC2CN(c3ccc([C@H](C)NC(=O)c4cnc(C)s4)cc3)C2)cc1 [Example 1.41]
1.7	CCOc1ccc(OC2CN(c3ccc([C@H](C)NC(=O)c4occc4C)cc3)C2)cc1 [Example 1.42]
0.32	CCOc1ccc(OC2CN(c3ccc([C@H](C)NC(=O)C(C)F)cc3)C2)cc1 (some centres unmarked) [Example 1.43]
0.61	CCOc1ccc(OC2CN(c3ccc([C@H](C)NC(=O)c4csc(NC(C)=O)n4)cc3)C2)cc1 [Example 1.44]
2.01	CCOc1ccc(OC2CN(c3ccc([C@H](C)NC(=O)c4cc(=O)[nH]cn4)cc3)C2)cc1 [Example 1.45]
1.73	CCOc1ccc(OC2CN(c3ccc([C@H](C)NC(=O)C4CC(=O)N(C)C4)cc3)C2)cc1 (some centres unmarked) [Example 1.46]
1.33	CCOc1ccc(OC2CN(c3ccc([C@H](C)NC(=O)Cc4c[nH]cn4)cc3)C2)cc1 [Example 1.47]
3.35	CCOc1ccc(OC2CN(c3ccc([C@H](C)NC(=O)c4ccc5c(c4)nnn5C)cc3)C2)cc1 [Example 1.48]
1.47	CCOc1ccc(OC2CN(c3ccc([C@H](C)NC(=O)Cc4cc[nH]c4)cc3)C2)cc1 [Example 1.49]
1.06	CCOc1ccc(OC2CN(c3ccc([C@H](C)NC(=O)c4nc(C)sc4C)cc3)C2)cc1 [Example 1.50]
0.07	CCOc1ccc(OC2CN(c3ccc([C@H](C)NC(=O)C4CC=CC4)cc3)C2)cc1 [Example 1.51]
0.97	CCOc1ccc(OC2CN(c3ccc([C@H](C)NC(=O)Cc4cccnc4)cc3)C2)cc1 [Example 1.52]
0.07	CCOc1ccc(OC2CN(c3ccc([C@H](C)NC(=O)C(C)(F)F)cc3)C2)cc1 [Example 1.53]
0.54	CCOc1ccc(OC2CN(c3ccc([C@H](C)NC(=O)Cc4cc(C)no4)cc3)C2)cc1 [Example 1.54]

IC50 [µM]	SMILES
0.44	CCOc1ccc(OC2CN(c3ccc([C@H](C)NC(=O)CCCNC(C)=O)cc3)C2)cc1 [Example 1.55]
1.3	CCOc1ccc(OC2CN(c3ccc([C@H](C)NC(=O)C4CNC(=O)C4)cc3)C2)cc1 (some centres unmarked) [Example 1.57]
3.9	CCOc1ccc(OC2CN(c3ccc([C@H](C)NC(=O)c4cnc(NC)nc4)cc3)C2)cc1 [Example 1.58]
2.06	CCOc1ccc(OC2CN(c3ccc([C@H](C)NC(=O)C4CCC(=O)N4)cc3)C2)cc1 (some centres unmarked) [Example 1.59]
0.32	CCOc1ccc(OC2CN(c3ccc([C@H](C)NC(=O)c4cnc(NC(C)=O)s4)cc3)C2)cc1 [Example 1.60]
1.44	CCOc1ccc(OC2CN(c3ccc([C@H](C)NC(=O)Cn4cncn4)cc3)C2)cc1 [Example 1.61]
2.5	CCOCC(=O)N[C@@H](C)c1ccc(N2CC(Oc3ccc(OCC)cc3)C2)cc1 [Example 1.62]
0.93	C#CC(C)(C)C(=O)N[C@@H](C)c1ccc(N2CC(Oc3ccc(OCC)cc3)C2)cc1 [Example 1.63]
2.19	CCOc1ccc(OC2CN(c3ccc([C@H](C)NC(=O)c4ccc(C)nc4)cc3)C2)cc1 [Example 1.64]
0.8	CCCCC(=O)N[C@@H](C)c1ccc(N2CC(Oc3ccc(OCC)cc3)C2)cc1 [Example 1.65]
0.55	CCOc1ccc(OC2CN(c3ccc([C@H](C)NC(=O)c4sc(NC(C)=O)nc4-c4ccccc4)cc3)C2)cc1 [Example 1.66]
1.29	CCOc1ccc(OC2CN(c3ccc([C@H](C)NC(=O)CCOC)cc3)C2)cc1 [Example 1.67]
1.52	CCOc1ccc(OC2CN(c3ccc([C@H](C)NC(=O)C(C)(C)C#N)cc3)C2)cc1 [Example 1.68]
3.15	CCOc1ccc(OC2CN(c3ccc([C@H](C)NC(=O)c4ccc(C)c(NC(C)=O)c4)cc3)C2)cc1 [Example 1.69]
0.71	CCOc1ccc(OC2CN(c3ccc([C@H](C)NC(=O)C(C)CC)cc3)C2)cc1 (some centres unmarked) [Example 1.71]
1.19	CCOc1ccc(OC2CN(c3ccc([C@H](C)NC(=O)c4coc(NC(C)=O)n4)cc3)C2)cc1 [Example 1.72]
0.16	CCOc1ccc(OC2CN(c3ccc([C@H](C)NC(=O)C(F)F)cc3)C2)cc1 [Example 1.73]
0.41	CCOc1ccc(OC2CN(c3ccc([C@H](C)NC(=O)C4(C(F)(F)F)CC4)cc3)C2)cc1 [Example 1.74]
0.41	CCOc1ccc(OC2CN(c3ccc([C@H](C)NC(=O)CC(F)(F)F)cc3)C2)cc1 [Example 1.75]
1	CCOc1ccc(OC2CN(c3ccc([C@H](C)NC(=O)c4sc(C)nc4C)cc3)C2)cc1 [Example 1.76]
1.04	C#CCCC(=O)N[C@@H](C)c1ccc(N2CC(Oc3ccc(OCC)cc3)C2)cc1 [Example 1.77]

IC50 [µM]	SMILES
0.36	CCOc1ccc(OC2CN(c3ccc([C@H](C)NC(=O)c4cncc(NC(C)=O)c4)cc3)C2)cc1 [Example 1.78]
1.72	CCOc1ccc(OC2CN(c3ccc([C@H](C)NC(=O)C(C)O)cc3)C2)cc1 (some centres unmarked) [Example 1.79]
1.06	CCOc1ccc(OC2CN(c3ccc([C@H](C)NC(=O)CCC#N)cc3)C2)cc1 [Example 1.80]
2.33	CCOc1ccc(OC2CN(c3ccc([C@H](C)NC(=O)Cc4ccccn4)cc3)C2)cc1 [Example 1.81]
0.27	CCOc1ccc(OC2CN(c3ccc([C@H](C)NC(=O)C(C)C#N)cc3)C2)cc1 (some centres unmarked) [Example 1.82]
0.59	CCOc1ccc(OC2CN(c3ccc([C@H](C)NC(=O)CC#N)cc3)C2)cc1 [Example 1.83]
0.73	CCOc1ccc(OC2CN(c3ccc([C@H](C)NC(=O)c4cnon4)cc3)C2)cc1 [Example 1.84]
0.23	CCOc1ccc(OC2CN(c3ccc([C@H](C)NC(=O)c4cncs4)cc3)C2)cc1 [Example 1.85]
0.05	C[C@H](NC(=O)c1cn[nH]c1)c1ccc(N2CC(Oc3ccc(OCC4CC4)cc3)C2)cc1 [Example 1.86]
0.2	C[C@H](NC(=O)CC#N)c1ccc(N2CC(Oc3ccc(OCC4CC4)cc3)C2)cc1 [Example 1.87]
0.1	CCC(=O)N[C@@H](C)c1ccc(N2CC(Oc3ccc(OCC4CC4)cc3)C2)cc1 [Example 1.88]
0.12	C[C@H](NC(=O)C1(C)CC1)c1ccc(N2CC(Oc3ccc(OCC4CC4)cc3)C2)cc1 [Example 1.89]
0.09	C[C@H](NC(=O)c1cncs1)c1ccc(N2CC(Oc3ccc(OCC4CC4)cc3)C2)cc1 [Example 1.90]
1.53	CCOc1ccc(OC2CN(c3ccc([C@H](C)NC(=O)c4cc(C)oc4C)cc3)C2)cc1 [Example 2.1, (S)-2,5-Dimethyl-furan-3-carboxylic acid (1-{4-[3-(4-ethoxy-phenoxy)-azetidin-1-yl]-phenyl}-ethyl)-amide]
0.79	CCOc1ccc(OC2CN(c3ccc([C@H](C)NC(=O)c4ccnn4C)cc3)C2)cc1 [Example 2.2]
0.82	CCOc1ccc(OC2CN(c3ccc([C@H](C)NC(=O)c4ccoc4C)cc3)C2)cc1 [Example 2.3]
0.29	CCOc1ccc(OC2CN(c3ccc([C@H](C)NC(=O)c4ccno4)cc3)C2)cc1 [Example 2.4]
0.07	C[C@H](NC(=O)C1CC1)c1ccc(N2CC(Oc3ccc(OCC4CC4)cc3)C2)cc1 [Example 2.7]
0.06	CCOc1ccc(OC2CN(c3ccc([C@H](C)NC(=O)C(F)(F)F)cc3)C2)cc1 [Example 3.1, (S)—N-(1-{4-[3-(4-Ethoxy-phenoxy)-azetidin-1-yl]-phenyl}-ethyl)-2,2,2-trifluoro-acetamide]
3.41	CCOc1ccc(OC2CN(c3ccc([C@H](C)NC(=O)Nc4ccncn4)cc3)C2)cc1 [Example 4.1, (S)-1-(1-{4-[3-(4-Ethoxy-phenoxy)-azetidin-1-yl]-phenyl}-ethyl)-3-pyrimidin-4-yl-urea]
